In ChEMBL document CHEMBL1857833, “Screening and optimization of specific chemical series against human African Trypanosomiasis (HAT)”:
In brackets after ≈: the same amount, converted by molar mass.

How the values were obtained:
[1] = DNDI: Cytotoxicity against L929 mouse fibroblasts, 72 hour.; format: toxicity, cell-based; conditions: mouse, L929 mouse fibroblasts
[2] = test system: Trypanosoma brucei; test: DNDI: Inhibition of Human African Trypanosomiasis, SBRI 427, in vitro; format: functional, organism-based
[3] = Trypanosoma brucei, SBRI 427, read-out: IC50

| Compound | IC50 at 72 h [1] | IC50 [2, 3] | IC50 [2] |
| --- | --- | --- | --- |
| COc1ccc(S(=O)(=O)Nc2ccccn2)cc1 | > 10 µg/mL | > 5 µg/mL |  |
| COc1ccc(S(=O)(=O)Nc2ccccn2)cc1OC | > 10 µg/mL | > 5 µg/mL |  |
| CCc1cccc(NS(=O)(=O)c2ccc(OC)cc2)c1 | 1.88 µg/mL (≈ 6.45 µM) | > 5 µg/mL |  |
| COc1ccccc1CNC(c1ccccc1)c1nc(-c2ccccc2)c(N2CCOCC2)o1 (stereo not given) | > 10 µg/mL | > 5 µg/mL |  |
| CCCCNCc1coc(-c2ccc(CCCC)cc2)n1 | 2.5 µg/mL (≈ 8.73 µM) | 0.75 µg/mL (≈ 2.62 µM) |  |
| COc1ccc(CNC(c2nc(Cc3ccccc3)c(N3CCCCC3)o2)C2CCCCC2)cc1OC (stereo not given) | > 10 µg/mL | > 5 µg/mL |  |
| CCCCc1ccc(-c2nc(CNC(CC)CC)co2)cc1 | 1.83 µg/mL (≈ 6.09 µM) | 0.63 µg/mL (≈ 2.1 µM) |  |
| COc1cccc(C(NCc2ccc(C)cc2)c2nc(Cc3ccccc3)c(N3CCOCC3)o2)c1 (stereo not given) | > 10 µg/mL | > 5 µg/mL |  |
| CCCCc1ccc(-c2nc(CN3CCN(c4ccccc4)CC3)co2)cc1 | > 10 µg/mL | > 5 µg/mL |  |
| CCCCc1ccc(-c2nc(CC)co2)cc1 | 6.2 µg/mL (≈ 27 µM) | > 5 µg/mL |  |
| Cc1ccc(CNC(c2nc(Cc3ccccc3)c(N3CCOCC3)o2)c2ccccc2C)cc1 (stereo not given) | > 10 µg/mL | > 5 µg/mL |  |
| CCCCc1ccc(-c2nc(C)c(C)o2)cc1 | 5.21 µg/mL (≈ 22.7 µM) | > 5 µg/mL |  |
| CC(C)c1ccc(Oc2ncccc2/C(=N\O)NC2CCCCC2)cc1 | 6.75 µg/mL (≈ 19.1 µM) | 0.09 µg/mL (≈ 0.255 µM) |  |
| Cc1ccc(CNC(c2nc(-c3ccccc3)c(N3CCOCC3)o2)C2CC2)cc1 (stereo not given) | > 10 µg/mL | > 5 µg/mL |  |
| CCCCc1ccc(-c2nc(CNC3CCCCC3)co2)cc1 | 1.44 µg/mL (≈ 4.61 µM) | 0.41 µg/mL (≈ 1.31 µM) |  |
| CCCCCCCCCCOc1ccc(-c2nc(CN[C@@H]3C[C@@H]4C[C@H]([C@H]3C)C4(C)C)co2)cc1 | 7.22 µg/mL (≈ 15.5 µM) | > 5 µg/mL |  |
| CCCCCC(C)NCc1coc(-c2ccc(CC)cc2)n1 (stereo not given) | 2.61 µg/mL (≈ 8.69 µM) | 1 µg/mL (≈ 3.33 µM) |  |
| CCCCc1ccc(-c2nc(CNC3CCC3)co2)cc1 | 3.51 µg/mL (≈ 12.3 µM) | 1.3 µg/mL (≈ 4.57 µM) |  |
| CCCCCCNCc1coc(-c2ccc(CCCC)cc2)n1 | 1.15 µg/mL (≈ 3.66 µM) | 0.37 µg/mL (≈ 1.18 µM) |  |
| Cc1ccc(/C(=N/O)Nc2cccc(F)c2)c(Oc2c(F)cccc2F)n1 | > 10 µg/mL | 3.75 µg/mL (≈ 10 µM) |  |
| CCC(C)C(NCc1cccc(C)c1)c1nc(-c2ccccc2)c(N2CCCCC2)o1 (stereo not given) | > 10 µg/mL | > 5 µg/mL |  |
| CCCCc1ccc(-c2nc(CNCCC)co2)cc1 | 4.29 µg/mL (≈ 15.7 µM) | 0.75 µg/mL (≈ 2.75 µM) |  |
| COc1ccc(/C(=N/O)Nc2cccc(C(C)C)c2)cc1 | 5.81 µg/mL (≈ 20.4 µM) | 1.41 µg/mL (≈ 4.96 µM) |  |
| CCCCCC(C)NCc1coc(-c2ccc(OC(F)F)cc2)n1 (stereo not given) | 3.82 µg/mL (≈ 11.3 µM) | 2.15 µg/mL (≈ 6.35 µM) |  |

| Compound | IC50 at 72 h [1] | IC50 [2, 3] | IC50 [2] |
| --- | --- | --- | --- |
| CCCCCC(C)NCc1coc(-c2ccc(OC(F)(F)C(F)F)cc2)n1 (stereo not given) | 4.3 µg/mL (≈ 11.1 µM) | 1.42 µg/mL (≈ 3.66 µM) |  |
| CCc1cccc(NS(=O)(=O)c2ccc(OC)c(OC)c2)c1 | > 10 µg/mL | > 5 µg/mL |  |
| COc1cccc(OC)c1CNCc1coc(-c2ccc(OC(C)C)cc2)n1 | 4.15 µg/mL (≈ 10.9 µM) | 2.88 µg/mL (≈ 7.53 µM) |  |
| CCCCc1ccc(-c2nc(-c3cc(-c4ccccc4)no3)co2)cc1 | > 10 µg/mL | > 5 µg/mL |  |
| COc1ccc(CNC(CC(C)C)c2nc(Cc3ccccc3)c(N3CCCCC3)o2)cc1OC (stereo not given) | > 10 µg/mL | > 5 µg/mL |  |
| CCCCc1ccc(-c2nc3ncccc3o2)cc1 | > 10 µg/mL | > 5 µg/mL |  |
| Cc1ccc(/C(=N/O)NC2CCCCC2)c(Oc2cc(Cl)ccc2Cl)n1 | > 10 µg/mL | 1.18 µg/mL (≈ 2.99 µM) | 2.27 µg/mL (≈ 5.76 µM) |
| CCCCCC(C)NCc1coc(-c2ccc(C)c(C)c2)n1 (stereo not given) | 1.86 µg/mL (≈ 6.19 µM) | 0.74 µg/mL (≈ 2.46 µM) |  |
| CCC(C)C(NCc1ccc(OC)c(OC)c1)c1nc(Cc2ccccc2)c(N2CCCCC2)o1 (stereo not given) | > 10 µg/mL | > 5 µg/mL |  |
| CCC(C)C(NCc1ccc(C)cc1)c1nc(Cc2ccccc2)c(N2CCCCC2)o1 (stereo not given) | > 10 µg/mL | > 5 µg/mL |  |
| O/N=C(\NC1CCCCC1)c1cccnc1Oc1cc(Cl)ccc1Cl | > 10 µg/mL | 0.57 µg/mL (≈ 1.5 µM) |  |
| CCC(C)C(NCc1ccc(OC)c(OC)c1)c1nc(-c2ccccc2)c(N2CCCCC2)o1 (stereo not given) | > 10 µg/mL | > 5 µg/mL |  |
| CCCCCCCCCCOc1ccc(-c2nc(CNC(C)CCCCC)co2)cc1 (stereo not given) | 2.9 µg/mL (≈ 6.77 µM) | 1.35 µg/mL (≈ 3.15 µM) |  |
| CCCCCNCc1coc(-c2ccc(CCCC)cc2)n1 | 1.64 µg/mL (≈ 5.46 µM) | 0.51 µg/mL (≈ 1.7 µM) |  |
| CCCCc1ccc(-c2nc(CNC3CCCC3)co2)cc1 | 2.52 µg/mL (≈ 8.44 µM) | 0.83 µg/mL (≈ 2.78 µM) |  |
| Cc1ccc(CNC(c2nc(Cc3ccccc3)c(N3CCOCC3)o2)c2ccccc2F)cc1 (stereo not given) | > 10 µg/mL | > 5 µg/mL |  |
| CCCCc1ccc(-c2nc(CNC(C)CCC)co2)cc1 (stereo not given) | 2.03 µg/mL (≈ 6.76 µM) | 0.61 µg/mL (≈ 2.03 µM) |  |
| CCCCc1ccc(-c2nc(CNC3CC3)co2)cc1 | 7.55 µg/mL (≈ 27.9 µM) | 3.05 µg/mL (≈ 11.3 µM) |  |
| Cc1ccc(CNC(c2ccccc2)c2nc(-c3ccccc3)c(N3CCCCC3)o2)cc1 (stereo not given) | > 10 µg/mL | > 5 µg/mL |  |
| CCc1cccc(N/C(=N\O)c2ccc(C)nc2Oc2cc(Cl)ccc2Cl)c1 | 4.7 µg/mL (≈ 11.3 µM) | 3.96 µg/mL (≈ 9.51 µM) |  |
| CCCCc1ccc(-c2nc(CNCc3ccncc3)co2)cc1 | > 10 µg/mL | > 5 µg/mL |  |
| Cc1ccc(CNC(c2cccc(Cl)c2)c2nc(Cc3ccccc3)c(N3CCOCC3)o2)cc1 (stereo not given) | > 10 µg/mL | > 5 µg/mL |  |
| CCCCc1ccc(-c2nc(CNCc3ccccn3)co2)cc1 | 9.31 µg/mL (≈ 29 µM) | > 5 µg/mL |  |
| Cc1ccc(Oc2ccccc2/C(=N/O)NC2CCCCC2)cc1 | 4.06 µg/mL (≈ 12.5 µM) | 0.27 µg/mL (≈ 0.832 µM) |  |

| Compound | IC50 at 72 h [1] | IC50 [2, 3] | IC50 [2] |
| --- | --- | --- | --- |
| CCCCc1ccc(-c2nc(C(=O)OCC)co2)cc1 | > 10 µg/mL | > 5 µg/mL |  |
| CCCCCCCCOC(=O)Cc1coc(-c2ccc(CCCC)cc2)n1 | > 10 µg/mL | > 5 µg/mL |  |
| CCCCc1ccc(-c2nc(CNC(C)c3ccccc3)co2)cc1 (stereo not given) | 3.33 µg/mL (≈ 9.96 µM) | 0.87 µg/mL (≈ 2.6 µM) |  |
| COc1ccc(S(=O)(=O)NC2CCCCC2)cc1 | > 10 µg/mL | > 5 µg/mL |  |
| COc1ccc(S(=O)(=O)NC2CCCCC2)cc1OC | > 10 µg/mL | > 5 µg/mL |  |
| CCCCc1ccc(-c2nc(CNCCc3ccccc3)co2)cc1 | 2.3 µg/mL (≈ 6.88 µM) | 0.69 µg/mL (≈ 2.06 µM) |  |
| CCC(C)C(NCc1ccc(C)cc1)c1nc(-c2ccccc2)c(N2CCCCC2)o1 (stereo not given) | > 10 µg/mL | > 5 µg/mL |  |
| CCCCc1ccc(-c2nc(C)c(C(C)=O)o2)cc1 | > 10 µg/mL | > 5 µg/mL |  |
| C[C@@H]1[C@H]2C[C@@H](C[C@H]1NCc1coc(-c3ccc(OC4CCCCC4)cc3)n1)C2(C)C | 1.59 µg/mL (≈ 3.89 µM) | 0.57 µg/mL (≈ 1.4 µM) |  |
| CCC(C)C(NCC(C)C)c1nc(Cc2ccccc2)c(N2CCCCC2)o1 (stereo not given) | > 10 µg/mL | > 5 µg/mL |  |
| CCCCc1ccc(-c2nc(CN[C@H](C)c3ccccc3)co2)cc1 | 3.32 µg/mL (≈ 9.93 µM) | 2.98 µg/mL (≈ 8.91 µM) |  |
| CCCCOc1ccc(-c2nc(CNCC(C)(C)C)co2)cc1 | 1.8 µg/mL (≈ 5.69 µM) | 0.9 µg/mL (≈ 2.84 µM) |  |
| CCCCc1ccc(-c2nc(CNCc3ccccc3)co2)cc1 | 3.29 µg/mL (≈ 10.3 µM) | 1.32 µg/mL (≈ 4.12 µM) |  |
| Cc1ccc(CNC(c2cccc(C#N)c2)c2nc(Cc3ccccc3)c(N3CCOCC3)o2)cc1 (stereo not given) | > 10 µg/mL | > 5 µg/mL |  |
| CCCCc1ccc(-c2nc(-c3ccccc3)c(C)o2)cc1 | > 10 µg/mL | > 5 µg/mL |  |
| COc1ccccc1Oc1ncccc1/C(N)=N\O | > 10 µg/mL | > 5 µg/mL |  |
| O/N=C(\Nc1cccc(F)c1)c1cccnc1Oc1cc(Cl)ccc1Cl | 7.69 µg/mL (≈ 19.6 µM) | > 5 µg/mL |  |
| CCCCc1ccc(-c2nc(-c3ccc(OC)cc3)co2)cc1 | > 10 µg/mL | > 5 µg/mL |  |
| CCCCc1ccc(-c2nc(-c3ccc4ccccc4c3)co2)cc1 | > 10 µg/mL | > 5 µg/mL |  |
| CCCCCc1ccc(-c2nc(CNC(C)CCCCC)co2)cc1 (stereo not given) | 1.01 µg/mL (≈ 2.95 µM) | 1.09 µg/mL (≈ 3.18 µM) |  |
| CCCCCC(C)NCc1coc(-c2ccc([N+](=O)[O-])cc2)n1 (stereo not given) | 7.08 µg/mL (≈ 22.3 µM) | 4.99 µg/mL (≈ 15.7 µM) |  |
| CCCCCC(C)NCc1coc(C2CCCCC2)n1 (stereo not given) | 10 µg/mL (≈ 35.9 µM) | 2.54 µg/mL (≈ 9.12 µM) |  |
| CCC(C)C(NCc1ccccc1OC)c1nc(Cc2ccccc2)c(N2CCCCC2)o1 (stereo not given) | > 10 µg/mL | > 5 µg/mL |  |
| CCCCc1ccc(-c2nc(COCC)co2)cc1 | > 10 µg/mL | > 5 µg/mL |  |
